Experimental data published in patent publication US10232013B2, “Use of an antimicrobial peptide TP4 in treating a cancer” (Academia Sinica, priority 2016, dated 2019).
Marks after values point to notes of the source that are not given here. Where no end group is shown, it is not given here.

How the values were obtained:
MB231 tumors = system: MB231 tumors; set-up: species or system BALB/c nu/nu mice; details: in vivo
Text: Female BALB/c nu/nu mice were obtained from BioLASCO Taiwan, Co., Ltd., and housed at the Laboratory Animal Facility, National Taiwan Ocean University, Keelung, Taiwan. Mice were maintained in pathogen-free sterile isolators, according to the guidelines of the Council of Agriculture (COA, Taiwan), and all food, water, caging, and bedding were sterilized before use. The animal protocol (103034) was approved by the Institutional Animal Care and Use Committee (IACUC) of the College of Life Science, National Taiwan Ocean University. For the TP4 treatment assay, nude mice with pre-growth MB231 tumors (n=5 for each group) were subcutaneously injected with TP4 (500 μg in 50 μL distilled water plus 10 μL KY jelly (Johnson & Johnson)) every two days for a total of fourteen times, by which time the tumors had reached an average volume of 30-50 mm^3 in size. Age-matched control nude mice without tumor xenografts were injected with KY jelly (10 μL plus 50 μL distilled water). Tumor size was calculated every two days, using the following formula: volume=[(height×length×width)×3.1416]/6. Mice were sacrificed 28 days after the beginning of TP4 treatment, and the tumors were harvested and weighed. Tumor samples were fixed with formalin and embedded with paraffin. Paraffin sections were stained by Hematoxylin & Eosin (H&E) and immunostained with Ki-67 antibody (Cell Signaling, clone D2H10, 1:100). […]

MCF7 cells = test: MTS cell viability assay, MCF7; format: cell-based, human; details: mean±SD
Experimental: Cell-lines used in this study were purchased from the Bioresource Collection and Research Center (BCRC) in and the cells were cultured by the standard cell culture procedures and conditions provided by the BCRC. MB231 (BCRC 60425), MB453 (BCRC 60429), and HDF cells were cultured as previously described by Ting et al. MCF7 […] cells were maintained in α-MEM medium (ThermoFisher Scientific) supplemented with 2 mM L-glutamine, 10% FBS, 0.1 mM non-essential amino acids, 1 mM sodium pyruvate, and antibiotics (100 U mL^−1 penicillin G and […] streptomycin). M10 (BCRC 60197) cells were maintained in α-MEM medium (ThermoFisher Scientific) supplemented with 10% FBS and antibiotics. With the exception of MB231 and MB453, all cells were cultured at 37° C. with 5% CO2. For the cell viability and transfection assay, 1×10^4 cells [5×10^3 M10 cells were seeded and cultured for 48 h to allow the cells sufficient time for attachment] were seeded into the wells of a 96-well plate and cultured overnight. For the transfection assays, cells were transfected with 0.1-0.4 μg FOSB/FOSAB expression plasmid (Origene Technology Inc.) and cell viability was determined after 72 h. The transfection efficiencies (number of cells expressing eGFP/all cells) of the MB231 transfection assays were determined by observing ten randomly selected fields (from three independent transfections) of control GFP plasmid transfections under an inverted microscope (Olympus, IX71) coupled to a digital camera (Olympus DP80), using an […] (LCPlanFI 20×/0.40 Ph1). CellSens standard software (Olympus) was used for image acquisition. During the drug treatment assay, inhibitors (PD98059, BAPTA-AM, and AlP II) were added 30 min prior to TP4, and cell viability was determined at indicated time-points. Transfection was performed using LipofectAMINE™ 3000 (ThermoFisher Scientific), according to the manufacturer's recommendations. Knock-down cells were generated by transducing MB231 cells with pre-synthesized FOSB (or control) shRNA lentiviral particles (Santa Cruz Biotechnology), and selecting puromycin-resistant cells in accordance with the manufacturer's standard protocol. MB231 or M10 cells stably expressing eGFP or mOrange2 were generated through transfection with peGFP-puromycin or pmOrange2-C1 plasmid, followed by puromycin (5 μg mL^−1) or G418 (500 μg mL^−1) selection as described above.
Cell viability was quantitatively analyzed using the CellTiter-Glo® Luminescent Cell Viability Assay kit (ATP assay) and CellTiter 96® AQueous Non-Radioactive Cell Proliferation Assay kit (MTS assay) (Promega) in accordance with the manufacturer's protocol. For MTS assay, 1×10^4 cells were seeded into the wells of a 96-well plate and cultured overnight [5×10^3 M10 cells were seeded and cultured for 48 h to enable sufficient well attachment]. Cells were subsequently treated with different doses of TP4 (2.5-20 μg mL^−1) and harvested at the indicated time-points (3-24 h). Reaction mixtures (20 μL: MTS+PMS, using a ratio 20:1) were directly added to the cells, and the plates were incubated for 3 h at 37° C. Absorbance at 490 nm is directly proportional to the number of living cells in culture and was measured using a photometer (SpectraMax® i3, Molecular Devices). ATP assay was performed as previously described by Ting et al. Lactate dehydrogenase (LDH) assays were performed by quantitatively measuring cell lysis with a Cytotoxicity Detection Kit^PLUS (LDH) (Roche) in accordance with the manufacturer's protocol. The LDH standard was purchased from Cayman Chemical. Briefly, 1×10^4 cells were seeded into the wells of a 96-well plate and cultured overnight. Culture media were replaced with fresh medium containing 1% FBS and cells were subsequently treated with different doses of TP4 (2.5-20 μg mL^−1). Supernatants were harvested at 3 h. […]

FIHHIIGGLFSAGKAIHRLIRRRRR [TP4, tilapia piscidin 4]
mouse body weight (MB231 tumors): no significant differences
body weight and adverse side-effects (MB231 tumors; mouse): without affecting body weight or causing adverse side-effects
Cellular toxicity (cell viability), MTS assay (MCF7 cells; MCF7, TP4 2.5 μg/mL, 3 h): 98.00 ± 6.05^a
Cellular toxicity (cell viability), MTS assay (MCF7 cells; MCF7, TP4 2.5 μg/mL, 6 h): 91.20 ± 6.51^b
Cellular toxicity (cell viability), MTS assay (MCF7 cells; MCF7, TP4 2.5 μg/mL, 12 h): 93.01 ± 10.60^b
Cellular toxicity (cell viability), MTS assay (MCF7 cells; MCF7, TP4 2.5 μg/mL, 24 h): 90.83 ± 5.30^b
Cellular toxicity (cell viability), MTS assay (MCF7 cells; MCF7, TP4 5.0 μg/mL, 3 h): 83.74 ± 6.10^d
Cellular toxicity (cell viability), MTS assay (MCF7 cells; MCF7, TP4 5.0 μg/mL, 6 h): 79.17 ± 12.06^d
Cellular toxicity (cell viability), MTS assay (MCF7 cells; MCF7, TP4 5.0 μg/mL, 12 h): 77.79 ± 7.73^d
Cellular toxicity (cell viability), MTS assay (MCF7 cells; MCF7, TP4 5.0 μg/mL, 24 h): 75.19 ± 11.28^d
Cellular toxicity (cell viability), MTS assay (MCF7 cells; MCF7, TP4 10.0 μg/mL, 3 h): 75.01 ± 11.15^d
Cellular toxicity (cell viability), MTS assay (MCF7 cells; MCF7, TP4 10.0 μg/mL, 6 h): 70.30 ± 12.26^d
Cellular toxicity (cell viability), MTS assay (MCF7 cells; MCF7, TP4 10.0 μg/mL, 12 h): 68.89 ± 6.54^d
Cellular toxicity (cell viability), MTS assay (MCF7 cells; MCF7, TP4 10.0 μg/mL, 24 h): 67.00 ± 10.90^d
Cellular toxicity (cell viability), MTS assay (MCF7 cells; MCF7, TP4 15.0 μg/mL, 3 h): 45.15 ± 9.89^d
Cellular toxicity (cell viability), MTS assay (MCF7 cells; MCF7, TP4 15.0 μg/mL, 6 h): 28.28 ± 6.29^d
Cellular toxicity (cell viability), MTS assay (MCF7 cells; MCF7, TP4 15.0 μg/mL, 12 h): 26.23 ± 6.08^d
Cellular toxicity (cell viability), MTS assay (MCF7 cells; MCF7, TP4 15.0 μg/mL, 24 h): 25.09 ± 3.83^d
Cellular toxicity (cell viability), MTS assay (MCF7 cells; MCF7, TP4 20.0 μg/mL, 3 h): 24.63 ± 3.80^d
Cellular toxicity (cell viability), MTS assay (MCF7 cells; MCF7, TP4 20.0 μg/mL, 6 h): 15.48 ± 2.33^d
Cellular toxicity (cell viability), MTS assay (MCF7 cells; MCF7, TP4 20.0 μg/mL, 12 h): 14.36 ± 2.10^d
Cellular toxicity (cell viability), MTS assay (MCF7 cells; MCF7, TP4 20.0 μg/mL, 24 h): 11.90 ± 3.39^d
